Results from patent US4127671A, “P-acetamidophenyl diethylaminoacetate” (Societe Anonyme dite: HEXACHIME, priority 1977, dated 1978).

Key:
solubility in water = assay type: physicochemical; settings: novel derivative
[1] = release of p-acetamidophenol in the organism
[2] = pharmacological properties compared with paracetamol; assay type: in vivo
Method: (§1) The analgesic action of the product was determined by the following method: batches of 6 male mice (SPF, OFI strain), weighing 19 to 20 g, received the test product by intravenous means. 0.3 c.c. per mouse of a 0.02% solution of phenyl benzoquinone was simultaneously injected by intraperitoneal means and the number of reactions of pain (abdominal twists) was counted from the 5 to the 10 minute after the latter treatment.
The antihyperthermisant action of the product according to the invention was determined by the following method: batches of 5 male Fauve de Bourgogne rabbits weighing 2 to 3 kg receive by intraveneous means 1 c.c./kg of an endotoxin solution of Salmonella abortus equivalent to 1 γ/kg in the physiological serum.
Two and a half hours later, the test product was administered in a physiological solution by intraveneous means.
The rectal temperature was recorded at regular intervals by an Ellab thermocouple. The probe was pressed 80 mm in.

[3] = test system: reactions of pain (abdominal twists), phenyl benzoquinone; assay: analgesic action: inhibition of phenyl benzoquinone-induced reactions of pain (abdominal twists); assay type: in vivo, male mice (SPF, OFI strain); settings: mice, pain reactions counted from 5 to 10 minute
Method: as §1
The following Table I gives the inhibitory percentage of these reactions.

[4] = stability of aqueous solutions; assay type: physicochemical; settings: with the passage of time

For `CCN(CC)CC(=O)Oc1ccc(NC(C)=O)cc1` [p-acetamidophenyl diethylaminoacetate], the solubility in water (solubility in water) was “very soluble in water”, the release of p-acetamidophenol [1] was “rapidly releases p-acetamidophenol” and the pharmacological properties [2] was “comparable to those of paracetamol”. The “% of inhibition” value ([3]; 8 mg/kg I.V.) was 26%, the “% of inhibition” value ([3]; 16 mg/kg I.V.) was 41% and the “% of inhibition” value ([3]; 32 mg/kg I.V.) was 68%. For the same compound, the “% of inhibition” value ([3]; 64 mg/kg I.V.) was 94% and the “stability of aqueous solutions” value [4] was “stable with the passage of time”.
